This is an account of results in article PMC5374673, “Activity of the novel BCR kinase inhibitor IQS019 in preclinical models of B-cell non-Hodgkin lymphoma” (Journal of Hematology & Oncology, 2017).

What all share (assay type): biochemical
One assay addresses T1, Bmx (Homo sapiens, UniProt P51813).
T1 sequence (P51813 1-675): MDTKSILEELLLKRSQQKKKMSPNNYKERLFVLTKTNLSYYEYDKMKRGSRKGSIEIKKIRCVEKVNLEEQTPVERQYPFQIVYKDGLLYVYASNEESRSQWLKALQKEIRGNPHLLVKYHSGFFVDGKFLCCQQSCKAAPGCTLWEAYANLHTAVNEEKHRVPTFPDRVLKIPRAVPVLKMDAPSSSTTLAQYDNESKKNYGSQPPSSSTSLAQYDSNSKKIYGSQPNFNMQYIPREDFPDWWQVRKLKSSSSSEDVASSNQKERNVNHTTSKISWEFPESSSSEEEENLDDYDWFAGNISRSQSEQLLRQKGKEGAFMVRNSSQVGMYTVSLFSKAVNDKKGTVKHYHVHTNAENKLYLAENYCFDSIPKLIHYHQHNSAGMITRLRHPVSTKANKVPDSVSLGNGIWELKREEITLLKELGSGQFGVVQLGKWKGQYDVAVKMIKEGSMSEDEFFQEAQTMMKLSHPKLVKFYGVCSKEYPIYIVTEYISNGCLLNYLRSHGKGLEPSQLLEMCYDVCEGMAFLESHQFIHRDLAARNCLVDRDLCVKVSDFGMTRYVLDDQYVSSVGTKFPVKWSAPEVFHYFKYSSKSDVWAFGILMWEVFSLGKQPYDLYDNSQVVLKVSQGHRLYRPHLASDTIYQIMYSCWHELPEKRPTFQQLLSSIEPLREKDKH
Nature of the assay: 400-kinase panel, residual activity at […].

Another assay has as its target Lyn (Homo sapiens, UniProt P07948). Nature of the assay: radiometric kinase assay and 400-kinase panel (ProQinase); also Ba/F3 cells expressing the kinase domain.
In a further assay the target is Syk (Homo sapiens, UniProt P43405). The description is as above.
The next assay concerns the target Btk (Homo sapiens, UniProt Q06187). The description is as above.

Structures are written as SMILES.

Sequence of Btk (Q06187 2-659): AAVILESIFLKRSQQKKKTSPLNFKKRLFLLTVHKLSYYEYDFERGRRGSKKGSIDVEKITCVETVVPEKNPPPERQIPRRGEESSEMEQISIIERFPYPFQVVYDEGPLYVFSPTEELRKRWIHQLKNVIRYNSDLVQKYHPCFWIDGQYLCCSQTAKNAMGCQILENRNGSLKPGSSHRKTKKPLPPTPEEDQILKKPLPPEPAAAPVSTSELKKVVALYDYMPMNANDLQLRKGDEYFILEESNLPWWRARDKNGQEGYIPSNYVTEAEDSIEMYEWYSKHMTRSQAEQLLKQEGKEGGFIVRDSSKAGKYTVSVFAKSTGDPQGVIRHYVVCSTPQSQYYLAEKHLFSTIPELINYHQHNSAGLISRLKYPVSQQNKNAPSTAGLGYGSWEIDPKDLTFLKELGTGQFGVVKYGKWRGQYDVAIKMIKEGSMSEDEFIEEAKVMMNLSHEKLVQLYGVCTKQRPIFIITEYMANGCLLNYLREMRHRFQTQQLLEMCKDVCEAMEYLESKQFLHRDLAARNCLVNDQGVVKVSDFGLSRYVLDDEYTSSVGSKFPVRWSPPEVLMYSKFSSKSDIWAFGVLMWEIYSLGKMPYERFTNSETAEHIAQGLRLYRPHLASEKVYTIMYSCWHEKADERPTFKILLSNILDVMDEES
Sequence of Lyn (P07948 2-512): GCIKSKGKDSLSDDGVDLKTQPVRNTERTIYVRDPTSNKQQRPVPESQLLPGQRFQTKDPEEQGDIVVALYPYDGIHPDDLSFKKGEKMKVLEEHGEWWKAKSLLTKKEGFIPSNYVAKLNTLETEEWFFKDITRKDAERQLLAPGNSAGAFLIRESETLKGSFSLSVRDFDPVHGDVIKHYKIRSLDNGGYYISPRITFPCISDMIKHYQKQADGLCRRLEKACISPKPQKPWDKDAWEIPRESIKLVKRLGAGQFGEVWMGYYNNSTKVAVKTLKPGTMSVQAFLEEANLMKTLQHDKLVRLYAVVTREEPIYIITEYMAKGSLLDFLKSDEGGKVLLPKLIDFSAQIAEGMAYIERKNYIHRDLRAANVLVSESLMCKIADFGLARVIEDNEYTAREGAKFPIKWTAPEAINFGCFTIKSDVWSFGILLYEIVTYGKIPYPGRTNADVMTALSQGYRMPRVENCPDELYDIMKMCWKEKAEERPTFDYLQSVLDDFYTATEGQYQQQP

The term IC50 denotes the concentration at which inhibition is half-maximal. Read a high IC50 as lower potency. In the case of `CN1CCN(c2ccc(Nc3nc(N)c4cc(-c5c(Cl)cccc5Cl)c(=O)n(C)c4n3)cc2)CC1` [compound 19, IQS019], on Bmx, the “400-kinase panel, residual activity at 0.1 and 10 μM” value is “the member of the Tec family of non-receptor tyrosine kinases, Bmx”. Further, the concentration for half-maximal inhibition (IC50) against Lyn was 0.15 µM; against Syk, 1.6 µM; at Btk, 2.1 µM.
